These results are taken from patent EP4800013A1, “PARG INHIBITOR” (Shanghai Qilu Pharmaceutical Research and Development …, priority 2023, dated 2025).

The target in one experiment is T1, PARG (Homo sapiens, UniProt Q86W56).
T1 construct: made in house
The experiment is described as follows: Enzymatic inhibitory activity against PARG, HTRF assay. In kind it is biochemical. Conditions: HTRF; PARylated PARP1 protein as substrate; 60 minutes at room temperature; read-out: IC50 against PARG enzyme. As for the experimental part: In this experiment, the enzymatic inhibitory activity of the compounds of the present disclosure against PARG was determined using an HTRF (homogeneous time-resolved fluorescence) assay.
HTRF assay reagents were purchased from PerkinElmer (Cat. Nos. 61HISTLB and 610SAXLB). The purified protein was prepared in-house.
PARG enzyme reaction buffer: 50 mM Tris (pH 7.4), 0.1 mg/mL BSA, 3 mM EDTA, 0.4 mM EGTA, 1 mM DTT, 50 mM KCl, and 0.01% Tween 20.
• 1) Using an ultra-micro pipette, the compounds of the present disclosure were serially diluted (starting at 10 µM with 3- to 5-fold serial dilutions) and added to a 384-well reaction plate, with each concentration tested in duplicate wells. Control group 1 was added with 10 µM control compound (100% inhibition group). Control group 2 was added with DMSO (0% inhibition group). After compound addition, the 384-well plate was centrifuged at 1000 rpm for 1 minute. • 2) 2.5 µL of PARG protein was added to each well and incubated with the compounds of the present disclosure at room temperature for 15 minutes, followed by centrifugation at 1000 rpm for 1 minute. • 3) 2.5 µL of PARylated PARP1 protein was added to each well and incubated at room temperature for 60 minutes, followed by centrifugation at 1000 rpm for 1 minute. • 4) 5 µL of His-Tb & SA-XL665 HTRF assay reagents were added to each well and incubated at room temperature for 60 minutes, followed by centrifugation at 1000 rpm for 1 minute. • 5) […] were measured using a PHERAstar FSX microplate reader from BMG. • 6) Data analysis was performed using GraphPad Prism 8. The IC50 values of the compounds of the present disclosure were calculated as follows. […] The average value of duplicate wells in control group 2 (0% inhibition group) was set as the relative inhibition rate of 0%. The HTRF signal values were converted into relative inhibition rates. The IC50 values of the compounds were calculated by fitting the data to a four-parameter logistic model. Table 15: Enzymatic inhibitory activity of the compounds of the present disclosure against PARG
Background: Time-resolved FRET reads energy transfer from a long-lived donor to a nearby acceptor.

The test system of the next experiment is KURAMOCHI cells. Briefly: Inhibition of proliferation of KURAMOCHI cells (CellTiter-Glo, intracellular ATP). Format: cell-based. The following applies: 168 h, incubated for 7 days, read-out: IC50 against KURAMOCHI cells. On the procedure: In this experiment, the inhibitory effect of the compounds of the present disclosure on the proliferation of the cancer cell line KURAMOCHI was evaluated by measuring intracellular ATP levels using a bioluminescent assay, and the half maximal inhibitory concentration (IC50) was determined.
RPMI 1640 medium (Cat. No. 11875-093), fetal bovine serum (10099-141), and 100× Pen/Strep (15070-063) were purchased from GIBCO. CellTiter-Glo Luminescent Cell Viability Assay reagent (Cat. No. G7573) was purchased from Promega.
• 1) Day 1: KURAMOCHI cells were counted using a cell counter and seeded into a 96-well culture plate at a density of 4000 cells per well in 100 µL medium. The plate was incubated overnight in an incubator (37°C, 5% CO2). • 2) Day 2: Using a D300e digital dispenser (TECAN), 500 nL of serially diluted test compounds of the present disclosure (starting at 10 µM, a total of 9 concentrations, 1:4 dilution) were added to the cells in the culture plate. The final concentration of DMSO was 0.5%. The cell culture plate was incubated for 7 days in a cell culture incubator (37°C, 5% CO2). Control group 1 received only medium and DMSO (100% inhibition group). Control group 2 received only DMSO (0% inhibition group). The final concentration of DMSO in both groups was 0.5%. • 3) Day 9: 100 µL of CellTiter-Glo reagent was added to each well. The plate was shaken at 500 rpm for 2 minutes, centrifuged at 1000 rpm for 1 minute, and then incubated at room temperature in the dark for 10 minutes to stabilize the luminescence signal. • 4) Luminescence signals were measured using an EnVision microplate reader (PerkinElmer). • 5) Data analysis was performed using GraphPad Prism 8. The IC50 values of the compounds of the present disclosure were calculated as follows. The CTG signal values were analyzed. The average inhibition rate of control group 1 (100% inhibition group) was set as the relative inhibition rate of 100%. The average inhibition rate of control group 2 (0% inhibition group) was set as the relative inhibition rate of 0%. The CTG signal values were converted into relative inhibition rates. The inhibition percentage (inhibition%) for each concentration of the compounds of the present disclosure was calculated according to the following formula: Inhibition% = (b−x)/(b−a)*100%; [formula] • a = CTG value (highest concentration), b = CTG value (blank well), x = CTG value (test well). • IC50 was calculated using GraphPad Prism 8. • (1) The concentration and inhibition rate corresponding to each well were recorded. Statistical calculation was performed using Log10 (compound concentration). • (2) The data were input into GraphPad Prism 8 and Analysis was selected. • (3) Nonlinear regression (curve fit) was selected. • (4) Log (inhibitor) vs. response - Variable slope was selected. • (5) The calculation formula was selected, and the calculation was performed according to the following formula: Y = Bottom + (Top - Bottom) / (1 + 10 ^ ((LogIC50 - X) * HillSlope)); X: log of dose or concentration; Y: response; Top and Bottom: maximum and minimum response. • (6) The IC50 values were calculated by fitting the data. Table 16: Inhibitory effect of the compounds of the present disclosure on the proliferation of KURAMOCHI cells

One may read the IC50 as the concentration that inhibits the measured activity by half.

Structures are written as SMILES.

T1 sequence (Q86W56 whole entry): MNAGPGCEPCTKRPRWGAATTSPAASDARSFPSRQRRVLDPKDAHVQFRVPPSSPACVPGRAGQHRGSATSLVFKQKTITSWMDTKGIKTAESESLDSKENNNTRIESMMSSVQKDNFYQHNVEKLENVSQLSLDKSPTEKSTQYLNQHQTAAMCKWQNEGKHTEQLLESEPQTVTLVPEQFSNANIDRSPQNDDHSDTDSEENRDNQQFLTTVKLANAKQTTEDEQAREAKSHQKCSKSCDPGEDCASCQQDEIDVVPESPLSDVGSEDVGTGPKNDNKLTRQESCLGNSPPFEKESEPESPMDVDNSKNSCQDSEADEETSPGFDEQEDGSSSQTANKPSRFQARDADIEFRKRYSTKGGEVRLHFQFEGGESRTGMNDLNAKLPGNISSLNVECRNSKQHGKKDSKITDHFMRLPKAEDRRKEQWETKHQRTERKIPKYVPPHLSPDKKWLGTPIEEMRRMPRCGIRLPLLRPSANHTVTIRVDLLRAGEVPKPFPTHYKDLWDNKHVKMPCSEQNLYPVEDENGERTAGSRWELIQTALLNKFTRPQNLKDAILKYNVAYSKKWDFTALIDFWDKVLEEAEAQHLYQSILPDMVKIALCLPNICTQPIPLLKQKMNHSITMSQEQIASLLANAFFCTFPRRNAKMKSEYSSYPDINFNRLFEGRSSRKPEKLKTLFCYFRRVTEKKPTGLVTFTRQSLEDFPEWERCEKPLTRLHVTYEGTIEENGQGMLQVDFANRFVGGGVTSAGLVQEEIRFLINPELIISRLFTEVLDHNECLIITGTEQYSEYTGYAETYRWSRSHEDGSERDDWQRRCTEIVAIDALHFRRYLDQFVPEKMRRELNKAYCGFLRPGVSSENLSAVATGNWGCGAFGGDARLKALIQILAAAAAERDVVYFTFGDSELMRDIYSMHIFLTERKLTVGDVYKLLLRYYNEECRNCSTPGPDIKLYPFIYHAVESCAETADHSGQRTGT

Take `C[C@H]1CN(c2cc(S(=O)(=O)NC3(C)CC3)cc3c2nnn3-c2nnc(C(F)F)s2)C[C@H](C)N1` [Compound 008B]: the IC50 on PARG amounted to 9.6 nM; in the experiment with KURAMOCHI cells it was 9 nM. On to `CC(C)Oc1nc2c(N3CCN(C(=O)C(C)C)CC3)cc(S(=O)(=O)NC3(C#N)CC3)cc2n1-c1nnc(C(F)F)s1` [Compound 057L], for which the IC50 at PARG was 8.6 nM; in the experiment on KURAMOCHI cells it was 8 nM. On to `CN(C)C(=O)N1CCN(c2cc(S(=O)(=O)NC3(C#N)CC3)cc3c2nc(OC2CC2)n3-c2nnc(C(F)F)s2)CC1` [Compound 057M], for which the results for the IC50 on PARG and in the experiment on KURAMOCHI cells were 2.8 nM and 6 nM, respectively.

`CC(C)C(=O)N1CCN(c2cc(S(=O)(=O)NC3(C#N)CC3)cc3c2nc(OC2COC2)n3-c2nnc(C(F)F)s2)CC1` [Compound 057N]: the IC50 worked out at 8.3 nM on PARG and 9 nM with KURAMOCHI cells. The like results for `CC(C)C(=O)N1CCN(c2cc(S(=O)(=O)NC3(C#N)CC3)cc3c2nc(OC2CC2)n3-c2nnc(C(F)F)s2)CC1` [Compound 057Q] were, in that order, 5.1 nM and 7 nM. Consider `CN(C)C(=O)N1CCC(c2cc(S(=O)(=O)NC3(C#N)CC3)cc3c2ncn3-c2nnc(C(F)F)s2)CC1` [Compound 059C], for which the values for the IC50 on PARG and with KURAMOCHI cells were 6.5 nM and 20 nM, respectively. For `CC(C)C(=O)N1CCC(c2cc(S(=O)(=O)NC3(C#N)CC3)cc3c2ncn3-c2nnc(C(F)F)s2)CC1` [Compound 059D], the IC50 on PARG was 28.8 nM; in the experiment on KURAMOCHI cells, 40 nM. The like results for `C[C@H]1CN(c2cc(S(=O)(=O)NC3(CF)CC3)cc3c2c2nccnc2n3-c2nnc(C(F)F)s2)C[C@H](C)N1` [Compound 065I] were, in that order, 1.8 nM and 5 nM.

On to `[2H]C([2H])([2H])C1(NS(=O)(=O)c2cc(N3C[C@H](C)N[C@@H](C)C3)c3c4nccnc4n(-c4nnc(C(F)F)s4)c3c2)CC1` [Compound 065J], for which the IC50 on PARG turned out to be 2.4 nM; in the experiment on KURAMOCHI cells it was 7 nM. Take `C[C@H]1CN(c2cc(S(=O)(=O)NC3(C#N)CC3)cc3c2c2nccnc2n3-c2nnc(C(F)F)s2)C[C@H](C)N1` [Compound 065K]: the IC50 at PARG turned out to be 6.3 nM; with KURAMOCHI cells it was 22 nM.

As for `C[C@H]1CN(c2cc(S(=O)(=O)NC3(C)COC3)cc3c2c2nccnc2n3-c2nnc(C(F)F)s2)C[C@H](C)N1` [Compound 065L], the IC50 at PARG is 5.5 nM; in the experiment on KURAMOCHI cells, 18 nM. Turning to `C[C@H]1CN(c2cc(S(=O)(=O)NC3(C#N)CC3)cc3c2n2ncnc2n3-c2nnc(C(F)F)s2)C[C@H](C)N1` [Compound 065N], the IC50 on PARG came out at 7.3 nM; in the experiment on KURAMOCHI cells, 9 nM.

Regarding `[2H]C([2H])([2H])C1(NS(=O)(=O)c2cc(N3C[C@H](C)N[C@@H](C)C3)c3c(c2)n(-c2nnc(C(F)F)s2)c2ncnn32)CC1` [Compound 065O], the IC50 on PARG came out at 3.1 nM; in the experiment with KURAMOCHI cells, 3 nM.

Consider `C[C@H]1CN(c2cc(S(=O)(=O)NC3(C)COC3)cc3c2n2ncnc2n3-c2nnc(C(F)F)s2)C[C@H](C)N1` [Compound 065P], for which the results for the IC50 on PARG and in the experiment with KURAMOCHI cells were 5.8 nM and 7 nM, respectively. The matching figures for `C[C@H]1CN(c2cc(S(=O)(=O)NC3(C)CC3)cc3c2n2nc(C(C)(C)O)nc2n3-c2nnc(C(F)F)s2)C[C@H](C)N1` [Compound 065T]: 1.5 nM and 13 nM. Turning to `COCc1nc2n(-c3nnc(C(F)F)s3)c3cc(S(=O)(=O)NC4(C)CC4)cc(N4C[C@H](C)N[C@@H](C)C4)c3n2n1` [Compound 065U], the IC50 at PARG was 0.5 nM; in the experiment on KURAMOCHI cells, 2 nM. For the compound `C[C@H]1CN(c2cc(S(=O)(=O)NC3(C)CC3)cc3c2n2nc(Cl)nc2n3-c2nnc(C(F)F)s2)C[C@H](C)N1` [Compound 065X], the IC50 on PARG worked out at 0.5 nM; in the experiment with KURAMOCHI cells, 4 nM. Consider `CC(C)c1nc2n(-c3nnc(C(F)F)s3)c3cc(S(=O)(=O)NC4(C)CC4)cc(N4C[C@H](C)N[C@@H](C)C4)c3n2n1` [Compound 065Y], for which the concentration for half-maximal inhibition (IC50) amounted to 0.8 nM at PARG and 6 nM in the experiment with KURAMOCHI cells. `C[C@H]1CN(c2cc(S(=O)(=O)NC3(C)CC3)cc3c2n2nc(C4CC4)nc2n3-c2nnc(C(F)F)s2)C[C@H](C)N1` [Compound 065Z]: the IC50 was 1 nM on PARG and 4 nM in the experiment with KURAMOCHI cells. For the compound `C=CCn1c(=O)n(-c2nnc(C(F)F)s2)c2cc(S(=O)(=O)NC3(C#N)CC3)cc(N3CCN(C(=O)N4CCC4)CC3)c21` [Compound 067B], the figures for the IC50 at PARG and in the experiment with KURAMOCHI cells were 6.9 nM and 15 nM, respectively. Consider `C=CCn1c(=O)n(-c2nnc(C(F)F)s2)c2cc(S(=O)(=O)NC3(C#N)CC3)cc(N3CCN(C(=O)N4CCOCC4)CC3)c21` [Compound 067G], for which the IC50 at PARG worked out at 8.7 nM; in the experiment with KURAMOCHI cells, 26 nM. The matching figures for `C=CCn1c(=O)n(-c2nnc(C(F)F)s2)c2cc(S(=O)(=O)NC3(C#N)CC3)cc(N3CCN(c4nccn4C)CC3)c21` [Compound 067J]: 7.8 nM and 21 nM.

Regarding `[2H]C([2H])([2H])OC(C)(C)C(=O)N1CCN(c2cc(S(=O)(=O)NC3(C#N)CC3)cc3c2n(CC=C)c(=O)n3-c2nnc(C(F)F)s2)CC1` [Compound 067LD], the IC50 was determined as 2.2 nM at PARG and 5 nM with KURAMOCHI cells. `C=CCn1c(=O)n(-c2nnc(C(F)F)s2)c2cc(S(=O)(=O)NC3(C#N)CC3)cc(N3CCN(C(=O)C(C)(C)OC)CC3)c21` [Compound 067L]: the IC50 on PARG came out at 4.9 nM; with KURAMOCHI cells, 4 nM.

As to `[2H]C([2H])([2H])OC1(C(=O)N2CCN(c3cc(S(=O)(=O)NC4(C#N)CC4)cc4c3n(CC=C)c(=O)n4-c3nnc(C(F)F)s3)CC2)CC1` [Compound 067ND], the figures for the IC50 on PARG and with KURAMOCHI cells were 2.3 nM and 3 nM, respectively. As for `C=CCn1c(=O)n(-c2nnc(C(F)F)s2)c2cc(S(=O)(=O)NC3(C#N)CC3)cc(N3CCN(C(=O)C4(OC)CC4)CC3)c21` [Compound 067N], the IC50 on PARG was determined as 3.1 nM; in the experiment with KURAMOCHI cells it was 3 nM. The like results for `C=CCn1c(=O)n(-c2nnc(C(F)F)s2)c2cc(S(=O)(=O)NC3(C#N)CC3)cc(N3CCN(C(=O)C(C)(C)N)CC3)c21` [Compound 067P] were, in that order, 5.2 nM and 74 nM. As to `C=CCn1c(=O)n(-c2nnc(C(F)F)s2)c2cc(S(=O)(=O)NC3(C#N)CC3)cc(N3CCN(C(=O)C(C)(C)NC)CC3)c21` [Compound 067Q], the IC50 at PARG is 5 nM; with KURAMOCHI cells, 13 nM. `C=C[C@H]1CN(c2cc(S(=O)(=O)NC3(C)CC3)cc3c2cnn3-c2nnc(C(F)F)s2)C[C@H](C=C)N1` [Compound 078C]: the IC50 in the experiment with KURAMOCHI cells came out at 15 nM.
